Laboratory results from US20260337212A1, “IP4-4,6 SUBSTITUTED DERIVATIVE COMPOUNDS FOR USE IN THE TREATMENT, INHIBITION OF PROGRESSION, AND PREVENTION OF ECTOPIC CALCIFICATION” (SANIFIT THERAPEUTICS, S.A., priority 2022, published 2026).

Experiments:
[1] = Rat calcinosis cutis/calciphylaxis model (vitamin D3 and FeCl3): skin plaque calcification; assay type: in vivo, Sprague Dawley rat; details: for Skin plaque % inhibition of calcification: FeCl3 0.5 mg/kg
Procedure: The dose-response efficacy of IP4-4,6 derivatives in the prevention and treatment of calcinosis cutis and calciphylaxis (CUA) induced by vitamin D3 and FeCl3 in a rat model was used. The model evaluated the effects of Compound 27 and IP6 on the formation of calcified skin plaques in rats for a duration of 8 days. Animals were sensitized at low concentration (LC, 35,000 IU/kg) and high concentration (HC, 50,000 IU/kg) doses of vitamin D3. A FeCl3 solution (0.5 mg/kg) was used as challenger to induce the formation of skin plaques. All animals were weighed every day before treatment.
Eighty-six male Sprague Dawley (SD) rats (Envigo Corp., Huntingdon, GB) weighing approximately 250-300 g were used. The animals were fed with a standard LASQCdiet® Rod14-H diet (LASvendi, Soest, DE). The animals were divided in 8 groups, 6 to 12 animals per group, as follows:
The following solutions were prepared: (a) 17,500 IU/mL (LC) and 25,000 IU/mL (HC) vitamin D3 (cholecalciferol, Duphafral D3 1000; Zoetis Inc., Parsippany, NJ, US), (b) 0.3 mg/mL FeCl3 (FeCl3·6H2O, 99%, Scharlab S. L., Barcelona, E S), (c) 30 mg/mL IP6 (660 g/mol phytic acid, pH 6.5-7.7), and (d) 15, 30, and 50 mg/mL Compound 27 (754.45 g/mol free acid, pH 6.5-7.7). All solutions were prepared in a 0.9% (w/v) physiological saline NaCl medium. An application volume of 2 mL/kg was employed.
Group 1—Control (sham), 6 animals. Animals in group 1 were administered subcutaneously physiological saline (0.9% (w/v) NaCl solution daily from D1 to D3 in the interscapular space, and with one saline 0.9% injection at each of the two ventral sites in the thorax on D4. Animals in group 1 were not administered Vit D or FeCl3 solutions.
(§1) Group 2—Physiological saline solution low concentration (Vehicle LC): Vit D 35,000 IU/kg, 0.5 mg/kg FeCl3 solution, 10 animals. Vit D at dose 35,000 IU/kg was administered subcutaneously x 3 consecutive days (D1, D2, D3), and one 0.5 mg/kg FeCl3 injection at each of the two ventral sites in the thorax on D4. This group received a daily saline 0.9% s.c. treatment (D1 to D8).
(§2) Group 3—Compound 27 60 mg/kg LC: Vit D 35,000 IU/kg, 0.5 mg/kg FeCl3, 10 animals. Vit D at dose 35,000 IU/kg was administered subcutaneously x 3 consecutive days (D1, D2, D3), and one 0.5 mg/kg FeCl3 injection at each of the two ventral sites in the thorax on D4. This group received a daily Compound 27 s.c. treatment at 60 mg/kg dose (D1 to D8).
as §1, with “4—Physiological” for “2—Physiological”, “high” for “low”, “HC):” for “LC):”, “50,000” for “35,000”, “FeCl3, 12” for “FeCl3 solution, 10”
as §2, with “5—IP6” for “3—Compound 27”, “HC,” for “LC:”, “50,000” for “35,000”, “12” for “10”, “IP6” for “Compound 27”
as §2, with “6—Compound” for “3—Compound”, “30” for “60”, “HC,” for “LC:”, “50,000” for “35,000”, “12” for “10”
as §2, with “7—Compound” for “3—Compound”, “[…],” for “LC:”, “50,000” for “35,000”, “12” for “10”
Group 8—Compound 27 100 mg/kg HC, Vit D 50,000 IU/kg, 0.5 mg/kg FeCl3, 12 animals. […]

[2] = test system: abcc6a−/− zebrafish larvae; experiment: abcc6a−/− zebrafish model of Pseudoxanthoma elasticum: spinal column hypermineralization (Alizarin Red); assay type: in vivo; details: 3 to 10 dpf
Procedure: FIG. 16 depicts an analysis of hypermineralization using Alizarin Red staining in 10 dpf abcc6a^−/− zebrafish larvae. The larvae were kept in E3-medium (n=20) and E3-medium supplemented with Compound 27 1 mM (n=18) from 3 to 10 dpf.
A stable CRISPR/Cas9 abcc6a^−/− zebrafish model characterized for spinal column hypermineralization was used for assaying the efficacy of Compound 27 in the treatment of Pseudoxanthoma elasticum (PXE; Van Gils M, et al., J Invest Dermatol […]; 138:2333-2342).
Abcc6a^−/− larvae were treated with Compound 27 at different concentrations (i.e., 100 μM, 300 μM, and 1 mM) for 7 days, starting at 3 days post fertilization (dpf), with daily refreshment of the medium containing the solved compounds. On 10 dpf, the larvae were euthanized and stained with Alizarin Red to visualize the spinal column hypermineralization, using a Leica M165 FC microscope (Leica Microsystems GmbH, Wetzlar, DE). Semi-quantification of calcification was done through image processing with ImageJ […] (Rasband W, Research Services Branch, NIH, Bethesda, MD, US).

For “4,6-O-bis(5-acetamidopentyl)-myo-inositol-1,2,3,5-tetrakis(phosphate) octasodium salt [Compound 27]”, the “Skin plaque % inhibition of calcification” value ([1]; 30 mg/kg s.c. daily D1-D8, HC (vitamin D3 50,000 IU/kg)) was 96.8 ± 0.7 %, the “Skin plaque % inhibition of calcification” value ([1]; 60 mg/kg s.c. daily D1-D8, HC (vitamin D3 50,000 IU/kg)) was 98.2 ± 0.1 % and the “Skin plaque % inhibition of calcification” value ([1]; 60 mg/kg s.c. daily D1-D8, LC (vitamin D3 35,000 IU/kg)) was 95.7 ± 0.9 %. The “Skin plaque % inhibition of calcification” value ([1]; 100 mg/kg s.c. daily D1-D8, HC (vitamin D3 50,000 IU/kg)) was 98.6 ± 0.1 %, the “Inhibition of the formation of skin plaque” value ([1]; 30, 60, 100 mg/kg s.c.) was “inhibits the formation of skin plaque in rats in a dose-response manner” and the “Degree of inhibition of skin plaque calcification compared with IP6” value ([1]; same dose (60 mg/kg)) was “higher than that reached by IP6 at the same dose”. For the same substance, the “Reduction of spinal hypermineralization (in words)” value ([2]; 1 mM in E3-medium, FIG. 16) was “Significant reduction of spinal hypermineralization”, the “Average reduction of spinal column hypermineralization” value ([2]; 1 mM in medium) was 60% and the “Physiological calcification and bone formation” value ([2]; 1 mM in medium) was “conservation of the physiological calcification and bone formation”. For the same substance, the “Significance (p) of reduced spinal hypermineralization vs untreated” value ([2]; 1 mM in medium) was less than 0.001 and the Relative calcified area ([2]; 1 mM in medium, untreated 35.2) was 14.17.
